In patent US11007169B2, “Cis-gnetin H and trans-gnetin H as therapeutic agents” (MIDDLE TENNESSEE STATE UNIVERSITY, priority 2014, dated 2021):

Key:
[1] = tested on: BT20 cells (human breast carcinoma); assay: Inhibition of cell proliferation, AlamarBlue fluorescent assay, BT20; type: cell-based; conditions: for inhibition at 10 µM: BT-20, 10 uM, 48-hours treatment; for IC50: BT-20, 48 hours, AlamarBlue, cancer cell line
Protocol: (§1) The cancer cell lines used in this study included human lung carcinoma (A549), human breast carcinoma (BT20 and MCF-7) and human osteosarcoma (U2OS), with the normal cell lines human peripheral lung epithelial cells (HPL1A) and human mammary epithelial cells (HMEC) serving as controls. A549, BT20, MCF-7, U2OS and HMEC cells were purchased from American Type Culture Collection (ATCC, USA), and HPL1A cells were obtained from Nagoya University, Japan. A549 and BT20 were grown in RPMI-1640 (Sigma), MCF-7 was grown in Dulbecco's Modified Eagle Medium (DMEM) (Sigma) supplemented with 0.01 mg/ml human recombinant insulin (Sigma), U2OS and HMEC were grown in McCoy's 5A (ATCC), and HPL1A was grown in DMEM/F-12K (Sigma). The mediums were supplemented with 10% Fetal Bovine Serum (FBS) (Gibco), 1% penicillin and streptomycin and incubated in a humidified atmosphere with 5% CO2 at 37° C.
(§2) The proliferation inhibition potential of cis- and trans-gnetin H was determined by a fluorescence dye staining method. Cells were seeded in a 96-well tissue culture-treated plate (BD Falcon) at a density of 4000 cells/well, and treated with cis- or trans-gnetin H for 48 hours. AlamarBlue dye (Invitrogen) was used to assess the viability of cells according to the manufacturer's instructions; the fluorescent intensity was read on a SpectraMax M2e microplate reader (Molecular Devices Inc.).
(§3) For the determination of IC50 values, cells were treated with a serial dilution (320 μM, 100 μM, 32 μM, 10 μM, 3.2 μM, and 0.32 μM) of cis- or trans-gnetin H for 48 hours. Cell viability was determined with AlamarBlue dye (Invitrogen) and the IC50 values were calculated using non-linear regression analysis.

[2] = tested on: HPL1A cells (human peripheral lung epithelial cells); assay: Inhibition of cell proliferation, AlamarBlue fluorescent assay, HPL1A normal control; type: cell-based; conditions: for inhibitory effects on normal HPL1A cells: 10 uM, up to 48 hours; for IC50: Homo sapiens, HPL1A, 48 hours, AlamarBlue, normal cell line
Protocol: as §1, §2, §3

[3] = tested on: HMEC cells (human mammary epithelial cells); assay: Inhibition of cell proliferation, AlamarBlue fluorescent assay, HMEC normal control; type: cell-based; conditions: for inhibitory effects on normal HMEC cells: 10 uM, up to 48 hours; for IC50: Homo sapiens, HMEC, 48 hours, AlamarBlue, normal cell line
Protocol: as §1, §2, §3

[4] = Conversion testing under 12-watt fluorescent lamp, HPLC; type: physicochemical; conditions: 6-hour treatment; for concentration of the compound after illumination: HPLC
Protocol: (§4) For stability testing, cis- and trans-gnetin H were dissolved with methanol to a concentration of 1 mg/ml. The stock solutions were sealed in a glass bottle and kept in the dark at room temperature for 6 months and then the purity of the two compounds was tested using the HPLC method previously described (He et al., J. Liq. Chromatog. Rel. Technol. 2013; 36:1708-1724). For conversion testing, cis- and trans-gnetin H were individually illuminated with a 12-watt fluorescent lamp for 2, 4 and 6 hours, and the compounds were identified using HPLC.

[5] = Stability testing, 6 months in the dark at room temperature, HPLC; type: physicochemical; conditions: 6-month storage in the dark at room temperature, 1 mg/ml in methanol
Protocol: as §4

A549 cells = assay: Multi-parameter cytotoxicity measurement, Arrayscan VTI HCS Reader; type: cell-based, human; conditions: for mitochondria transmembrane potential: A549, after both 24 hrs and 48 hrs
Protocol: A549 cells were seeded in a 96-well plate (BD Falcon) at a density of 4000 cells/well, and then treated with different concentrations ([…] 100 μM) of cis- or trans-gnetin H for 24 hours and 48 hours. Non-treated cells and cells treated with 100 μM Valinomycin were used as negative and positive controls. After treatment, the cells were stained with a mixture of fluorescent dyes including Hoechst 33342 (blue florescence), cell permeability dye (green florescence) and mitochondrial membrane potential dye (red florescence) (Thermo Scientific). The three dyes allow changes in nuclear morphology, cell membrane permeability and mitochondrial trans-membrane potential to be determined. The cells were fixed and washed, and images for each fluoroprobe were acquired at different channels using suitable filters with a 20× objective and analyzed on the Arrayscan VTI HCS Reader (Thermo Scientific). The Cell Health Profiling BioApplication software (Thermo Scientific) was used for image acquisition and analysis. For each well, at least 400 cells were automatically acquired and analyzed. The average fluorescent intensity was used to quantify changes in each channel and each experiment was performed in triplicate.

BT20 cells = assay: Cell cycle analysis by flow cytometry, BT20; type: cell-based, human; conditions: 100 μM, 24 hours
Protocol: A549 and BT20 cells were first synchronized in the G0 phase by culturing cells for 24 hours in serum-free medium and then treated with 100 μM cis- or trans-gnetin H for 24 hours, respectively. Cell cycle analysis was done using propidium iodide (PI) staining as described (An et al., Mol. Cancer Ther. 2007; 6:61-9) and the cells were analyzed on a Guava Flow Cytometer with InCyte software (Millipore).

[6] = tested on: PMA-differentiated THP-1 macrophages; assay: Cell viability Alamar Blue assay, PMA-differentiated THP-1; type: cell-based, human; conditions: for viability of PMA-differentiated THP-1 cells: 3, 6, 13, 25, 50, 100 μM, 24 h treatment
Protocol: THP-1 cells were maintained in RPMI 1640 medium supplemented with 10% complement-inactivated FBS and 1% penicillin/streptomycin (complete culture medium) at 37° C. with 5% CO2 supplemented. Cell concentrations were adjusted to desired concentrations for each experiment by centrifugation at 500×g for 5 min and resuspended in complete culture medium with 100 nM of PMA. Cell concentration was adjusted to 5×10^5 cells/ml for all assays and 2.5×10^5 cells/ml were used for NF-κB nuclear translocation assay. Cells were seeded onto 96-, 24-, or 12-well plates and incubated for 48 to 72 h to allow for differentiation. Cells were washed with serum-free RPMI 1640 medium before each experiment to remove the undifferentiated cells.
Differentiated THP-1 cells were treated with various concentrations of cis- and trans-gnetin H and 1 μM of dexamethasone for 24 h. Following treatment, the cell supernatants were replaced with culture medium containing 1× Alamar Blue reagent and incubated for an additional 20-24 h. Cell viability was assessed by measuring Relative Fluorescent Units (RFU) on the SpectraMax M2e microplate reader (Molecular Devices Inc., Sunnyvale, Calif., USA) at Ex 560 nm and Em 590 nm. The results were expressed as a percentage, relative to untreated control cells (FIG. 9). Untreated and LPS-treated cells were tested for the effect of DMSO as vehicle control.
Differentiated THP-1 cells were pretreated with various concentrations of cis-gnetin H, trans-gnetin H, or 1 μM of dexamethasone for 1 h and stimulated with 20 ng/ml of LPS for 4 h. Dexamethasone is a synthetic glucocorticoid that suppresses cytokine response and was used as a positive control (Abraham et al., 2006, J. Exp. Med., 203:1883-9; Steer et al., J. Biol. Chem., 2000, 275(24):18432-40). Supernatants were collected for human cytokine ELISAs and the manufacturer's protocol was followed to assess the cytokine response. Cells remaining after the supernatant collection were tested for relative viability by Alamar Blue cytotoxicity assay as described earlier.

Oc1ccc(/C=C\c2c3c(cc4c2[C@H](c2cc(O)cc(O)c2)[C@@H](c2ccc(O)cc2)O4)O[C@H](c2ccc(O)cc2)[C@H]3c2cc(O)cc(O)c2)cc1 [cis-gnetin H]
inhibition at 10 µM [1]: ~99% | IC50 [1]: 2.15 µM | inhibitory effects on normal HPL1A cells [2]: no such obvious inhibitory effects | IC50 [2]: 91 µM | inhibitory effects on normal HMEC cells [3]: no such obvious inhibitory effects | IC50 [3]: 26.7 µM | concentration of the compound after illumination [4]: 88.9% | chemical identity after storage [5]: no obvious changes | nuclear size (A549 cells; A549, 24 hrs treatment): no alternation in nuclear size | nuclear size (A549 cells; A549, 48 hrs treatment): reduction in nuclear size | mitochondria transmembrane potential (A549 cells): reduction in the mitochondria transmembrane potential | G0-G1 subpopulation, BT20 (BT20 cells): increased significantly | M and G2-S subpopulation, BT20 (BT20 cells): significant decrease | viability of PMA-differentiated THP-1 cells [6]: Neither cis- nor trans-gnetin H affected the viability of the cells | cell viability with LPS ([6]; pretreatment 12.5, 25, 50 μM and LPS): no effect on cell viability

Oc1ccc(/C=C/c2c3c(cc4c2[C@H](c2cc(O)cc(O)c2)[C@@H](c2ccc(O)cc2)O4)O[C@H](c2ccc(O)cc2)[C@H]3c2cc(O)cc(O)c2)cc1 [trans-gnetin H]
inhibition at 10 µM [1]: ~99% | IC50 [1]: 1.35 µM | inhibitory effects on normal HPL1A cells [2]: no such obvious inhibitory effects | IC50 [2]: 72 µM | inhibitory effects on normal HMEC cells [3]: no such obvious inhibitory effects | IC50 [3]: 25.9 µM | portion converted to its cis-isomer [4]: about 86% | concentration of the compound after illumination [4]: 6.2% | chemical identity after storage [5]: no obvious changes | nuclear size (A549 cells; A549, 24 hrs treatment): no alternation in nuclear size | nuclear size (A549 cells; A549, 48 hrs treatment): reduction in nuclear size | mitochondria transmembrane potential (A549 cells): reduction in the mitochondria transmembrane potential | G0-G1 subpopulation, BT20 (BT20 cells): increased significantly | M and G2-S subpopulation, BT20 (BT20 cells): significant decrease | viability of PMA-differentiated THP-1 cells [6]: Neither cis- nor trans-gnetin H affected the viability of the cells | cell viability with LPS relative to untreated control ([6]; pretreated at 50 μM and LPS): decreased viability
